Consider two compounds from patent publication US6649702B1, “Stabilization and acoustic activation of polymeric micelles for drug delivery” (University of Utah Research Foundation, priority 1999, dated 2003).

Each structure is given as a SMILES string. Where “and” joins values, the source holds several entries; their conditions need not be identical. Identical values can stand only once.

Data set [1] is described as follows: Ultrasound-triggered drug release from P-triblock P-105 micelles, real-time fluorescence detection. Type of data set: physicochemical. The following applies: for Drug release: 10% P-triblock P-105 micelles, 37° C.; for Drug release (mean and s.d.): 10% P-triblock. The text has this: A custom ultrasonic exposure chamber with real-time fluorescence detection was used to measure acoustically-triggered drug release from P-triblock PLURONIC P-105 micelles under continuous wave (CW) or pulsed ultrasound in the frequency range of 20 kHz to 90 kHz. The measurements were based on the decrease in fluorescence intensity when drug was transferred from the micelle core to the aqueous environment. Two fluorescent drugs were used: doxorubicin (DOX) and its paramagnetic analogue, ruboxyl (Rb). P-triblock PLURONIC P-105 at various concentrations in aqueous solutions was used as a micelle-forming polymer. Drug release was highest at 20 kHz ultrasound and dropped with increasing ultrasonic frequency despite much higher power densities. […] The release of DOX was higher than that of Rb due to stronger interaction and deeper insertion of Rb into the core of the micelles. Drug release was higher at lower P-triblock concentrations, which presumably results from higher local drug concentrations in the core of P-triblock micelles when the number of micelles is low. At constant frequency, drug release increased with increasing power density. At constant power density and for pulse duration longer than 0.1 s, peak release under pulsed ultrasound was the same as stationary release under CW ultrasound.
Fluorescence of the drug was excited at an excitation wavelength of 488 nm with an optical power of approximately 0.5 mW in a 2 mm diameter beam. At this light intensity no photobleaching was observed, based on the constant level of drug fluorescence during continuing irradiation for 8 hours. The drug release was quantified by measuring the changes in fluorescence emissions before, during, and after the ultrasound exposure. A fiberoptic probe (a sheathed bundle of multimode glass fibers, 3 mm entrance diameter, 0.6 numerical aperture, and 90 cm in length) was used to collect the fluorescence emission. The light passed through a dielectric bandpass filter with a 35 nm bandwidth centered at 535 nm (Omega Optical Model 535DF35) to a sensitive silicon detector (EG&G Model 450-1). The filter effectively cuts off emissions below 500 nm, including any Rayleigh-scattered laser light. The detector signal was digitized using a 12-bit AID converter (National Instruments) and sent, along with the digitized monitor photodetector signal, to a Macintosh computer for storage and processing. The analog outputs of both photodetectors were also plotted on a stripchart recorder. The temperature of the ultrasonic exposure chamber was maintained at 37° C. by circulating thermostated water throughout the sonicating bath.
The experimental procedure is described below. First, fluorescence intensity of drug in phosphate buffered saline, PBS (FPBS) was measured; then, without any changes in the experimental setup, the PBS solution was carefully removed and replaced with the drug solution in P-triblock micelles. […] The base fluorescence of the micellar solution (Fmic) was measured, after which CW or pulsed ultrasound was turned on. During the “ultrasound on” phase, fluorescence dropped as shown in FIG. 19 due to drug release from the hydrophobic core of micelles into the aqueous environment.
Digitized data were analyzed, to calculate the percentage of drug release from micelles. To reduce the noise, the data were Fourier transformed, and a small magnitude narrow band noise of unknown origin and its next three harmonics were filtered out. After Fourier filtering, the data were smoothed using a 10 point moving average. An example of the raw and filtered data is presented in FIG. 19 for DOX release from 10% P-triblock micelles.
The percent of drug release was calculated assuming that Fmic-FPBS corresponds to 100% drug release:
Release (%)=[(Fmic−Fus)/(Fmic−FPBS)]×100% (1)
where Fus is fluorescence during exposure to ultrasound. […]

Data set [2] is described as follows: Rb localization in P-triblock micelles and P-gel nanoparticles (EPR and fluorescence). It counts as physicochemical. The protocol:
A dry powder of the EPR probe (16-DS) was incubated with unstabilized or stabilized micellar solutions of P-triblock for 15 mm under constant shaking. Unsolubilized probe was removed by centrifugation. The concentration of a solubilized probe was measured by the EPR. The same technique of probe introduction was used for pyrene. Water solubility of 16-DS or pyrene is very low and can be neglected. Dissolved probes are associated with P-triblock molecules and thus reflect the loading capacity, dynamics and environment of the latter. For a fluorescent drug, Rb, the same concentration of Rb (20 μg/ml) was introduced into non-stabilized and stabilized micellar P-triblock solutions at 37° C. from a stock solution. Because fluorescence of Rb within P-triblock micelles is much higher than outside micelles, the fraction of the drug within micelles can be estimated as
where Fmes is a measured fluorescence intensity, Fm is Rb fluorescence intensity when all the drug is localized in the hydrophobic core of micelles (measured in a 20% P-triblock solution at 37° C.), Fs is fluorescence intensity in non-micellar solutions (i.e., in PBS), and am is the fraction of the drug located in the hydrophobic core of micelles.
Rb was used as a spin- and fluorescent probe to monitor drug distribution in P-triblock micelles and P-gel nanoparticles.
The anthraquinone part of Rb molecule is inherently fluorescent. Rb fluorescence is quenched in collisions with water molecules; when Rb molecules are screened from collisions with water, theft fluorescence increases manifold.

The test system of data set [3] is blood proteins (albumin, fibrinogen). The following applies: reported elsewhere [82]; cited from earlier work.

Take `COc1cccc2c1C(=O)c1c(O)c3c(c(O)c1C2=O)C[C@@](O)(/C(C)=N/N=C1CC(C)(C)N(O)C(C)(C)C1)C[C@@H]3O[C@H]1C[C@H](N)[C@H](O)[C@H](C)O1.Cl` [Rb, Ruboxyl]: the Drug release is 0.8 ± 0.25% in data set [1] (67 kHz, CW, 1.35 W/cm^2); 3.2 ± 0.9% in data set [1] (67 kHz, CW, 1.66 W/cm^2); 5.5% and 5.5 ± 1.5% in data set [1] (67 kHz, CW, 2.8 W/cm^2). Further, the “Drug Release from P-triblock Micelles” value is on record as “Traces” in data set [1] (20 kHz, 0.021 W/cm^2) and “traces” in data set [1] (90 kHz, 1.66 W/cm^2). Besides, in data set [2] (EPR, P-gel heated to 37° C.), the “overall fraction of the drug in the cores of P-gel nanoparticle” value is 73%. The “fraction of rotationally restricted molecules” value was found to be 71% in data set [2] (EPR, room temperature, 10% P-triblock solution without a hydrogel) and 78% in data set [2] (EPR, room temperature, 10% P-triblock/1% poly(NiPAAm) P-gel nanoparticles). The “fraction of Rb molecules localized in the hydrophobic environment of micelle cores” value in data set [2] (fluorescence, room temperature, 10% P-triblock solutions) is “about 70%”. Also, the “adsorption or binding to blood proteins (albumin, fibrinogen)” value in data set [3] was “negligible”.
Take `COc1cccc2c1C(=O)c1c(O)c3c(c(O)c1C2=O)C[C@@](O)(C(=O)CO)C[C@@H]3O[C@H]1C[C@H](N)[C@H](O)[C@H](C)O1` [DOX, doxorubicin]: the Drug release in data set [1] (20 kHz, 0.033 W/cm^2) is 4.6 ± 0.5%; in data set [1] (20 kHz, 0.047 W/cm^2), 6.5 ± 1.1%; in data set [1] (20 kHz, 0.058 W/cm^2), 9.2 ± 0.56%; in data set [1] (67 kHz, 0.15 W/cm^2), 0%; in data set [1] (67 kHz, CW, 1.35 W/cm^2), 5.4 ± 2.3%; in data set [1] (67 kHz, CW, 1.66 W/cm^2), 8.1 ± 2.1%. In data set [1] (67 kHz, CW, 2.8 W/cm^2), this compound displayed a Drug release of 10.7 ± 0.8%. Besides, the “Drug release (mean and s.d.)” value in data set [1] (drug concentration 30 μg/ml, 67 kHz, 2.8 W/cm^2) is listed as 5.5%±1%; in data set [1] (drug concentration 40 μg/ml, 67 kHz, 2.8 W/cm^2), 10%±1%.
